Counter-ions that a name gives are not always drawn. Like-named read-outs stand apart in the source and are kept apart here.
Test system: LMP1 expression in Kem I cells
Experiment: microbe, parasite or virus in culture
Assay type: cell-based, EBV
Details: for fold induction at 1 µM / fold induction at 2.5 µM: human gammaherpesvirus 4, 48 h
[1] = Kem I cells, 2.5 uM, 48 hours, average of replicates 1 and 2
[2] = Kem I cells, 2.5 uM, 48 hours, fold change in LMP1 transcript vs vehicle
[3] = read-out: Average LMP1 Fold Increase, Kem I cells, 2.5 uM, 48 hours, average of replicates 1 and 2
[4] = read-out: Replicate 1-LMP1 Fold Increase, Kem I cells, 2.5 uM, 48 hours, fold change in LMP1 transcript vs vehicle
[5] = read-out: Replicate 2-LMP1 Fold Increase, Kem I cells, 2.5 uM, 48 hours, fold change in LMP1 transcript vs vehicle

| SMILES | Average LMP1 Fold Increase [1] | Replicate 1-LMP1 Fold Increase [2] | Replicate 2-LMP1 Fold Increase [2] | fold induction at 2.5 µM [3] | fold induction at 2.5 µM [4] | fold induction at 2.5 µM [5] | further results |
| --- | --- | --- | --- | --- | --- | --- | --- |
| Cl.NC(=O)c1cnc(N[C@@H]2CCCC[C@@H]2N)nc1Nc1cccc(-n2nccn2)c1 [PRT062607(P505-15, BIIB057) HCl] | 0.54 | 0.25 | 0.83 |  |  |  |  |
| COc1cc(Br)c(Nc2nc(-c3c(C)nc4ncccn34)cs2)c(Br)c1 [PTC-209] |  |  |  |  |  |  | Average LMP1 Fold Increase: 0.90; Replicate 1-LMP1 Fold Increase: 0.34; Replicate 2-LMP1 Fold Increase: 1.46 |
| CC(C)NCCCn1c(Sc2cc3c(cc2I)OCO3)nc2c(N)ncnc21 [PU-H71] |  |  |  |  |  |  | fold induction at 1 µM (read-out: Average LMP1 Fold Increase, Kem I cells, 1 uM, 48 hours, average of replicates 1 and 2): 9.03; fold induction at 1 µM (read-out: Replicate 1-LMP1 Fold Increase, Kem I cells, 1 uM, 48 hours, fold change in LMP1 transcript vs vehicle): 15.3; fold induction at 1 µM (read-out: Replicate 2-LMP1 Fold Increase, Kem I cells, 1 uM, 48 hours, fold change in LMP1 transcript vs vehicle): 2.79 |
| CCOC(=O)c1ccc(N2NC(=O)/C(=C/c3ccc([N+](=O)[O-])o3)C2=O)cc1 [PYR-41] | 0.49 | 0.50 | 0.49 |  |  |  |  |
| C1=N/C2=N/c3ccc(OCCN4CCCC4)c(c3)COC/C=C/COCc3cccc(c3)C(=C1)N2 [Pacritinib (SB1518)] | 0.37 | 0.24 | 0.49 |  |  |  |  |
| CC(=O)c1c(C)c2cnc(Nc3ccc(N4CCNCC4)cn3)nc2n(C2CCCC2)c1=O.Cl [Palbociclib (PD-0332991) HCl] | 1.34 | 0.77 | 1.91 |  |  |  |  |
| CC(=O)O[C@H]1C[C@@H]2CC[C@@H]3[C@H](CC[C@@]4(C)[C@H]3C[C@H]([N+]3(C)CCCCC3)[C@@H]4OC(C)=O)[C@@]2(C)C[C@@H]1[N+]1(C)CCCCC1.[Br-].[Br-] [Pancuronium dibromide] | 0.28 | 0.25 | 0.31 |  |  |  |  |
| Cc1[nH]c2ccccc2c1CCNCc1ccc(/C=C/C(=O)NO)cc1 [Panobinostat (LBH589)] | 383.26 | 451.65 | 314.88 |  |  |  |  |
| Oc1cc(O)cc(/C=C/c2ccc(O)c(O)c2)c1 [Piceatannol] |  |  |  | 0.75 | 0.83 | 0.66 |  |
| COc1ccc(-c2nc3ccc(C4=NNC(=O)CC4C)cc3[nH]2)cc1 (stereo not drawn) [Pimobendan] |  |  |  | 0.87 | 1.11 | 0.64 |  |
| O=C(NNc1ccccc1)c1ccncc1 [PluriSln #1 (NSC 14613)] | 1.32 | 1.70 | 0.94 |  |  |  |  |
| Nc1cccc2c1C(=O)N(C1CCC(=O)NC1=O)C2=O (stereo not drawn) [Pomalidomide] |  |  |  | 5.8 | 3.72 | 7.87 |  |
| C#CCC(Cc1cnc2nc(N)nc(N)c2n1)c1ccc(C(=O)N[C@@H](CCC(=O)O)C(=O)O)cc1 (stereo partly drawn) [Pralatrexate] |  |  |  | 3.49 | 3.95 | 3.02 |  |
| CCCN[C@H]1CCc2nc(N)sc2C1 [Pramipexole] |  |  |  | 0.93 | 0.6 | 1.27 |  |
| CCc1nc(N)nc(N)c1-c1ccc(Cl)cc1 [Pyrimethamine] |  |  |  | 0.8 | 0.7 | 0.9 |  |
| CC(C)(C)c1cc(NC(=O)Nc2ccc(-c3cn4c(n3)sc3cc(OCCN5CCOCC5)ccc34)cc2)no1 [Quizartinib (AC220)] | 0.93 | 0.71 | 1.15 |  |  |  |  |
| O=C(NCc1cccc(O)c1)Nc1nc(-c2ccncc2)cs1 [RKI-1447] | 0.54 | 0.75 | 0.33 |  |  |  |  |
| Cc1nnc(C(=O)NC(C)(C)c2nc(C(=O)NCc3ccc(F)cc3)c(O)c(=O)n2C)o1 [Raltegravir (MK-0518)] | 1.31 | 0.59 | 2.02 |  |  |  |  |
| CCC(=O)NCC[C@@H]1CCc2ccc3c(c21)CCO3 [Ramelteon] |  |  |  | 0.33 | 0.45 | 0.22 |  |
| CNC(=C[N+](=O)[O-])NCCSCc1ccc(CN(C)C)o1 [Ranitidine] |  |  |  | 1.04 | 0.9 | 1.18 |  |
| C#CCN[C@@H]1CCc2ccccc21 [Rasagiline Mesylate] |  |  |  | 0.69 | 0.86 | 0.51 |  |
| O=C(NC(Cc1cc(=O)[nH]c2ccccc12)C(=O)O)c1ccc(Cl)cc1 (stereo not drawn) [Rebamipide] |  |  |  | 0.85 | 0.48 | 1.23 |  |
| Cc1cccc(-c2[nH]ncc2-c2ccc3ncccc3n2)n1 [RepSox] |  |  |  |  |  |  | Average LMP1 Fold Increase: 0.64; Replicate 1-LMP1 Fold Increase: 0.96; Replicate 2-LMP1 Fold Increase: 0.33 |

| SMILES | Average LMP1 Fold Increase [1] | Replicate 1-LMP1 Fold Increase [2] | Replicate 2-LMP1 Fold Increase [2] | fold induction at 2.5 µM [3] | fold induction at 2.5 µM [4] | fold induction at 2.5 µM [5] | further results |
| --- | --- | --- | --- | --- | --- | --- | --- |
| CO[C@H]1C[C@@H]2CC[C@@H](C)[C@@](O)(O2)C(=O)C(=O)N2CCCC[C@H]2C(=O)O[C@H]([C@H](C)C[C@@H]2CC[C@@H](OP(C)(C)=O)[C@H](OC)C2)CC(=O)[C@H](C)/C=C(\C)[C@@H](O)[C@@H](OC)C(=O)[C@H](C)C[C@H](C)/C=C/C=C/C=C/1C [Ridaforolimus (Deforolimus, MK-8669)] | 3.37 | 6.08 | 0.67 |  |  |  |  |
| COc1cc(OC)c(/C=C/S(=O)(=O)Cc2ccc(OC)c(NCC(=O)O)c2)c(OC)c1 [Rigosertib (ON-01910)] | 0.57 | 0.69 | 0.46 |  |  |  |  |
| Cc1c(C(=O)NN2CCCCC2)nn(-c2ccc(Cl)cc2Cl)c1-c1ccc(Cl)cc1 [Rimonabant] |  |  |  | 0.39 | 0.24 | 0.54 |  |
| O=C(NC[C@H]1CN(c2ccc(N3CCOCC3=O)cc2)C(=O)O1)c1ccc(Cl)s1 [Rivaroxaban] |  |  |  | 0.14 | 0.08 | 0.2 |  |
| CN(C)CCc1c[nH]c2ccc(Cn3cncn3)cc12 [Rizatriptan Benzoate] |  |  |  | 0.15 | 0.1 | 0.2 |  |
| COc1ccc(C2CNC(=O)C2)cc1OC1CCCC1 (stereo not drawn) [Rolipram] |  |  |  | 0.94 | 1.13 | 0.75 |  |
| COc1cc2c(cc1OC)[C@@H]1Cc3ccc(OC)c(OC)c3CN1CC2 [Rotundine] |  |  |  | 0.28 | 0.3 | 0.27 |  |
| CC(=O)OCC(=O)NCCCOc1cccc(CN2CCCCC2)c1 [Roxatidine Acetate HCl] |  |  |  | 0.2 | 0.15 | 0.24 |  |
| N#CC[C@H](C1CCCC1)n1cc(-c2ncnc3[nH]ccc23)cn1 [Ruxolitinib (INCB018424)] | 0.41 | 0.48 | 0.34 |  |  |  |  |
| Cc1nn(-c2ccccc2)c(C)c1/C=N/N1CCN(Cc2ccccc2)CC1 [SANT-1] | 0.64 | 0.31 | 0.97 |  |  |  |  |
| CCn1c(N)c(C(=O)NC)c(=O)c2ccc(C#C[C@@](C)(O)COC)nc21 [SAR131675] | 0.40 | 0.30 | 0.49 |  |  |  |  |
| C[S+]([O-])c1ccc(-c2nc(-c3ccc(F)cc3)c(-c3ccncc3)[nH]2)cc1 (stereo not drawn) [SB203580] | 0.57 | 0.54 | 0.59 |  |  |  |  |
| Cc1cc(NC(=O)Nc2ccc(N(C)C)cc2)c2cc(F)cc(F)c2n1 [SB408124] | 0.67 | 0.81 | 0.53 |  |  |  |  |
| O=C1NC(=O)C(c2ccccc2[N+](=O)[O-])=C1Nc1ccc(O)c(Cl)c1 [SB415286] | 0.71 | 0.59 | 0.84 |  |  |  |  |
| NC(=O)c1ccc(-c2nc(-c3ccccn3)c(-c3ccc4c(c3)OCO4)[nH]2)cc1 [SB431542] | 0.71 | 0.82 | 0.61 |  |  |  |  |
| O=C(Nc1ccccc1Br)N[C@@H]1CCN(c2ccc(C(F)(F)F)cn2)C1 [SB705498] | 0.43 | 0.38 | 0.48 |  |  |  |  |
| O=S(=O)(c1ccccc1)c1cnc2c(N3CCNCC3)cccc2c1 [SB742457] | 0.82 | 1.09 | 0.55 |  |  |  |  |
| Cc1ccc(C(=O)N(CCCN)[C@@H](c2oc3cc(Cl)ccc3c(=O)c2Cc2ccccc2)C(C)C)cc1 [SB743921] | 1.76 | 1.10 | 2.41 |  |  |  |  |
| O=C(NNc1nc2cc(F)ccc2n2cccc12)c1cnccn1 [SC144] | 1.51 | 1.00 | 2.02 |  |  |  |  |
| CC(C)N(CCCNC(=O)Nc1ccc(C(C)(C)C)cc1)C[C@H]1O[C@@H](n2cc(Br)c3c(N)ncnc32)[C@H](O)[C@@H]1O [SGC 0946] |  |  |  | 0.29 | 0.26 | 0.31 |  |
| Cc1cc(Nc2ccc(NC(=O)c3ccc(Nc4ccnc5ccccc45)cc3)cc2)nc(N)n1 [SGI-1027] | 53.53 | 13.12 | 93.95 |  |  |  |  |
| CN1CCC(CNc2ccc3ncc(-c4cccc(OC(F)(F)F)c4)n3n2)CC1 [SGI-1776 free base] | 1.26 | 1.94 | 0.57 |  |  |  |  |
